According to patent US20210079443A1, “INDICATOR BAC[…] SELECTING AND […] EFFICACY OF THERAPEUTICS AND METHODS FOR USING SAME” (priority 2018, published 2021):

Legend:
Experiment in all cases: Phage-Mediated Detection of Staphylococcus aureus
Format in all cases: cell-based
[1] = tested on: Staphylococcus aureus strain AR0461 (MRSA, CDC Panel)
Protocol: (§1) Samples of methicillin-resistant S. aureus (MRSA) were primed by adding 135 μl of samples containing S. aureus to rich media. The rich media included sub-inhibitory antibiotic (cefoxitin) to allow for specific enrichment and induction of MRSA. Samples were incubated in rich media for 1-2 hours. Following the priming of the samples, additional cefoxitin was added to the media and samples were incubated for an additional 2 hours. Staphylococcus aureus-specific bacteriophage NanoLuc Indicator phage was added to the samples and incubated for 2 hours. Lysis buffer and NANO-GLO® reagent were added. Following 5 minutes of incubation, measurements of bioluminescence were taken using a GLOMAX® 96 instrument. A signal/background ratio ≥750 RLU indicated positive detection of S. aureus. A signal/background ratio of <750 RLU indicated the sample was negative for S. aureus.

[2] = tested on: Staphylococcus aureus strain AR0483 (MRSA, CDC Panel)
Protocol: as §1

[3] = tested on: Staphylococcus aureus strain AR0468 (MRSA, CDC Panel)
Protocol: as §1

[4] = tested on: Staphylococcus aureus strain AR0480 (MRSA, CDC Panel)
Protocol: as §1

[5] = tested on: Staphylococcus aureus strain AR0465 (MRSA, CDC Panel)
Protocol: as §1

[6] = tested on: Staphylococcus aureus strain BAA-2313 (MRSA, ATCC)
Protocol: as §1

[7] = tested on: Staphylococcus aureus strain AR0492 (MSSA, CDC Panel)
Protocol: as §1

[8] = tested on: Staphylococcus aureus strain BAA-2094 (MRSA, ATCC)
Protocol: as §1

[9] = tested on: Staphylococcus aureus strain AR0481 (MRSA, CDC Panel)
Protocol: as §1

[10] = tested on: Staphylococcus aureus strain BAA-1721 (MSSA, ATCC)
Protocol: as §1

[11] = tested on: Staphylococcus aureus strain AR0485 (MSSA, CDC Panel)
Protocol: as §1

[12] = tested on: Staphylococcus aureus strain AR0473 (MRSA, CDC Panel)
Protocol: as §1

[13] = tested on: Staphylococcus aureus strain AR0486 (MSSA, CDC Panel)
Protocol: as §1

CO[C@@]1(NC(=O)Cc2cccs2)C(=O)N2C(C(=O)O)=C(COC(N)=O)CS[C@@H]21 [Cefoxitin, cefoxitin]
Cefoxitin Concentration 1 ug/mL (indicator phage luminescence signal) ([1]; detected CFU 25, cefoxitin 1 ug/mL): 3460 RLU | Cefoxitin Concentration 2 ug/mL (indicator phage luminescence signal) ([1]; detected CFU 25, cefoxitin 2 ug/mL): 1846 RLU | Cefoxitin Concentration 4 ug/mL (indicator phage luminescence signal) ([1]; detected CFU 25, cefoxitin 4 ug/mL): 910 RLU | Cefoxitin Concentration 1 ug/mL (indicator phage luminescence signal) ([2]; detected CFU 12, cefoxitin 1 ug/mL): 39250 RLU | Cefoxitin Concentration 2 ug/mL (indicator phage luminescence signal) ([2]; detected CFU 12, cefoxitin 2 ug/mL): 24390 RLU | Cefoxitin Concentration 4 ug/mL (indicator phage luminescence signal) ([2]; detected CFU 12, cefoxitin 4 ug/mL): 9081 RLU | Cefoxitin Concentration 1 ug/mL (indicator phage luminescence signal) ([3]; detected CFU 169, cefoxitin 1 ug/mL): 10330 RLU | Cefoxitin Concentration 2 ug/mL (indicator phage luminescence signal) ([3]; detected CFU 169, cefoxitin 2 ug/mL): 10070 RLU | Cefoxitin Concentration 4 ug/mL (indicator phage luminescence signal) ([3]; detected CFU 169, cefoxitin 4 ug/mL): 5002 RLU | Cefoxitin Concentration 1 ug/mL (indicator phage luminescence signal) ([4]; detected CFU 356, cefoxitin 1 ug/mL): 1038000 RLU | Cefoxitin Concentration 2 ug/mL (indicator phage luminescence signal) ([4]; detected CFU 356, cefoxitin 2 ug/mL): 430200 RLU | Cefoxitin Concentration 4 ug/mL (indicator phage luminescence signal) ([4]; detected CFU 356, cefoxitin 4 ug/mL): 127400 RLU | Cefoxitin Concentration 1 ug/mL (indicator phage luminescence signal) ([5]; detected CFU 101, cefoxitin 1 ug/mL): 8263 RLU | Cefoxitin Concentration 2 ug/mL (indicator phage luminescence signal) ([5]; detected CFU 101, cefoxitin 2 ug/mL): 4086 RLU | Cefoxitin Concentration 4 ug/mL (indicator phage luminescence signal) ([5]; detected CFU 101, cefoxitin 4 ug/mL): 3006 RLU | Cefoxitin Concentration 1 ug/mL (indicator phage luminescence signal) ([6]; detected CFU 192, cefoxitin 1 ug/mL): 363300 RLU | Cefoxitin Concentration 2 ug/mL (indicator phage luminescence signal) ([6]; detected CFU 192, cefoxitin 2 ug/mL): 52440 RLU | Cefoxitin Concentration 4 ug/mL (indicator phage luminescence signal) ([6]; detected CFU 192, cefoxitin 4 ug/mL): 2409 RLU | Cefoxitin Concentration 1 ug/mL (indicator phage luminescence signal) ([7]; detected CFU 178, cefoxitin 1 ug/mL): 13040 RLU | Cefoxitin Concentration 2 ug/mL (indicator phage luminescence signal) ([7]; detected CFU 178, cefoxitin 2 ug/mL): 194 RLU | Cefoxitin Concentration 1 ug/mL (indicator phage luminescence signal) ([8]; detected CFU 147, cefoxitin 1 ug/mL): 252900 RLU | Cefoxitin Concentration 2 ug/mL (indicator phage luminescence signal) ([8]; detected CFU 147, cefoxitin 2 ug/mL): 96700 RLU | Cefoxitin Concentration 4 ug/mL (indicator phage luminescence signal) ([8]; detected CFU 147, cefoxitin 4 ug/mL): 1971 RLU | Cefoxitin Concentration 1 ug/mL (indicator phage luminescence signal) ([9]; detected CFU 82, cefoxitin 1 ug/mL): 150100 RLU | Cefoxitin Concentration 2 ug/mL (indicator phage luminescence signal) ([9]; detected CFU 82, cefoxitin 2 ug/mL): 109000 RLU | Cefoxitin Concentration 4 ug/mL (indicator phage luminescence signal) ([9]; detected CFU 82, cefoxitin 4 ug/mL): 27170 RLU | Cefoxitin Concentration 1 ug/mL (indicator phage luminescence signal) ([10]; detected CFU 197, cefoxitin 1 ug/mL): 21900 RLU | Cefoxitin Concentration 2 ug/mL (indicator phage luminescence signal) ([10]; detected CFU 197, cefoxitin 2 ug/mL): 172 RLU | Cefoxitin Concentration 4 ug/mL (indicator phage luminescence signal) ([10]; detected CFU 197, cefoxitin 4 ug/mL): 164 RLU | Cefoxitin Concentration 1 ug/mL (indicator phage luminescence signal) ([11]; detected CFU 190, cefoxitin 1 ug/mL): 13930 RLU | Cefoxitin Concentration 2 ug/mL (indicator phage luminescence signal) ([11]; detected CFU 190, cefoxitin 2 ug/mL): 236 RLU | Cefoxitin Concentration 4 ug/mL (indicator phage luminescence signal) ([11]; detected CFU 190, cefoxitin 4 ug/mL): 301 RLU | Cefoxitin Concentration 1 ug/mL (indicator phage luminescence signal) ([12]; detected CFU 219, cefoxitin 1 ug/mL): 60000 RLU | Cefoxitin Concentration 2 ug/mL (indicator phage luminescence signal) ([12]; detected CFU 219, cefoxitin 2 ug/mL): 17500 RLU | Cefoxitin Concentration 4 ug/mL (indicator phage luminescence signal) ([12]; detected CFU 219, cefoxitin 4 ug/mL): 338 RLU | Cefoxitin Concentration 1 ug/mL (indicator phage luminescence signal) ([13]; detected CFU 220, cefoxitin 1 ug/mL): 9217 RLU | Cefoxitin Concentration 4 ug/mL (indicator phage luminescence signal) ([13]; detected CFU 220, cefoxitin 4 ug/mL): 252 RLU
